Where “and” joins values, the source holds several entries; their conditions need not be identical. Identical values can stand only once. Values belong to the compound of their own block, whether it stands above or below them.
System: 171881-019-R-J1-PDC tumor spheroids, viability
Assay: Anticancer human tumor 171881-019-R-J1-PDC patient-derived invasive breast carcinoma cell line growth inhibition [GQUAD]
Settings: spheroids with HUVEC and MSC; for viability, T/C: stronger effect = lower value
From the text: DNA G-quadruplex Stabilizer Agents in Combinations in Complex Spheroids
A high-throughput screen of multi-cell type tumor spheroids was designed to identify active combinations of DNA G-quadruplex stabilizer agents and targeted small molecules. Complex spheroids include a stromal component modeled by human endothelial cells (HUVEC) and fibroblasts modeled by human mesenchymal stem cells (MSCs). The concentration ranges selected for each drug and investigational agent were based upon clinically achievable concentrations if the clinical Cmax of the agent was known.
Compounds. The drugs and investigational agents: pidnarulex (CX-5461; NSC782164), APTO-253 (NSC789042), BRACO-19 (NSC847499), peposertib (NSC802822), ceralasertib (NSC780249), elimusertib (NSC800525), camonsertib (NSC841442), AZD-1390 (NSC803789), olaparib (NSC753686), talazoparib (NSC767125), ART-558 (NSC835418), sotorasib (NSC818433), MRTX-1133 (NSC836407), SN-38 (NSC673596), topotecan (NSC609699), etoposide (NSC141540), doxorubicin (NSC123127), gemcitabine (NSC613327), 5-fluorouracil (NSC19893), paclitaxel (NSC125973), vemurafenib (NSC761431), panobinostat (NSC761190), R-306465 (JNJ-16241199; NSC773264), adavosertib (NSC754352), TP-3654 (NSC805149), carboplatin (NSC241240), KSQ-4279 (NSC840948), and staurosporine (NSC755774) were obtained from the National Cancer Institute (NCI) Developmental Therapeutics Program Chemical Repository (34). The FDA-approved anticancer drug set is available from the NCI Developmental Therapeutics Program. […] The stock solutions were prepared in dimethyl sulfoxide (DMSO, Sigma-Aldrich, St. Louis, MO, cat. D2650) at 800-fold the tested concentration and stored at -70 degrees C prior to their use. All drugs and investigational agents were tested over a range starting from a high concentration at or near the clinical Cmax and decreasing in half-log increments. If the clinical Cmax for an agent had not been determined, the highest concentration tested was 10 microM.
2.3 Cell Culture. All cells were maintained in an incubator at 37 degrees C and 5% CO2 with 95% humidity. The PDC lines were cultured according to standard operating procedures established by the NCI PDMR. All PDCs were thawed and cultured in Matrigel-coated flasks prepared with a working solution of 1X Ham's F-12 nutrient mix, without supplementation (Invitrogen, cat. 11765054), 100 U/mL penicillin-streptomycin (Invitrogen, cat. 15140122), and 2.5% Matrigel (Corning Inc., cat. 354248) for the first three passages. The 857933-349-R-J2-PDC line was cultured in 6C/Colon 1B media, which includes advanced DMEM/F-12 (Thermo Fisher Scientific, cat. 12634028), 10 mM HEPES (Thermo Fisher Scientific, cat. 15630080), 1X GlutaMAX supplement (Thermo Fisher Scientific, cat. 35050061), 0.1 mg/mL primocin (InvivoGen, cat. ant-pm-2), 10% defined fetal bovine serum, heat inactivated (HyClone Laboratories Inc., cat. SH30070.03HI), 50% L-WRN conditioned media (ATCC, cat. CRL-3276), 1.25 mM N-Acetyl-L-cysteine (Sigma-Aldrich, cat. A9165), 10 mM nicotinamide (Sigma-Aldrich, cat. N0636), 1X B-27 supplement (Thermo Fisher Scientific, cat. 17504044), 1X N-2 supplement (Thermo Fisher Scientific, cat. 17502048), 10 microM Y-27632 dihydrochloride (Tocris Bioscience, cat. 1254), and 50 ng/mL human EGF recombinant protein (Thermo Fisher Scientific, cat. PHG0311). The 485176-168-R4-J1-PDC line was cultured in Panc media, which includes all 6C/Colon 1B media components plus 100 ng/mL human FGF-10 (Thermo Fisher Scientific, cat. 100-26), 500 nM SB-431542 (Selleckchem, cat. S1067), and gastrin (Tocris, cat. 3006).
[…]

[1] = curve of first compound, second compound 0.0316 µM
[2] = curve of first compound, second compound 0.1 µM
[3] = curve of first compound, second compound 0.316 µM
[4] = curve of first compound, second compound 1 µM
[5] = curve of first compound, second compound 3.16 µM
[6] = curve of first compound, second compound 10 µM
[7] = second compound 0.0316 µM, first compound 0.0316 µM
[8] = second compound 0.0316 µM, first compound 0.1 µM
[9] = second compound 0.0316 µM, first compound 0.316 µM
[10] = second compound 0.0316 µM, first compound 1 µM
[11] = second compound 0.0316 µM, first compound 3.16 µM
[12] = second compound 0.0316 µM, first compound 10 µM
[13] = second compound 0.1 µM, first compound 0.0316 µM
[14] = second compound 0.1 µM, first compound 0.1 µM
[15] = second compound 0.1 µM, first compound 0.316 µM
[16] = second compound 0.1 µM, first compound 1 µM
[17] = second compound 0.1 µM, first compound 3.16 µM
[18] = second compound 0.1 µM, first compound 10 µM
[19] = second compound 0.316 µM, first compound 0.0316 µM
[20] = second compound 0.316 µM, first compound 0.1 µM
[21] = second compound 0.316 µM, first compound 0.316 µM
[22] = second compound 0.316 µM, first compound 1 µM
[23] = second compound 0.316 µM, first compound 3.16 µM
[24] = second compound 0.316 µM, first compound 10 µM
[25] = second compound 1 µM, first compound 0.0316 µM
[26] = second compound 1 µM, first compound 0.1 µM
[27] = second compound 1 µM, first compound 0.316 µM
[28] = second compound 1 µM, first compound 1 µM
[29] = second compound 1 µM, first compound 3.16 µM
[30] = second compound 1 µM, first compound 10 µM
[31] = second compound 3.16 µM, first compound 0.0316 µM
[32] = second compound 3.16 µM, first compound 0.1 µM
[33] = second compound 3.16 µM, first compound 0.316 µM
[34] = second compound 3.16 µM, first compound 1 µM
[35] = second compound 3.16 µM, first compound 3.16 µM
[36] = second compound 3.16 µM, first compound 10 µM
[37] = second compound 10 µM, first compound 0.0316 µM
[38] = second compound 10 µM, first compound 0.1 µM
[39] = second compound 10 µM, first compound 0.316 µM
[40] = second compound 10 µM, first compound 1 µM
[41] = second compound 10 µM, first compound 3.16 µM
[42] = second compound 10 µM, first compound 10 µM
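Further: spheroids exposed to compounds for 7 days.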
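Wherever viability, T/C is given: 100% = DMSO vehicle control viability.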

Structure (SMILES): COc1cc(C2c3cc4c(cc3C(OC3OC5COC(C)OC5C(O)C3O)C3COC(=O)C23)OCO4)cc(OC)c1O (configuration not stated) + Cc1[nH]c2ccc(F)cc2c1-c1nc2c3cccnc3c3ncccc3c2[nH]1
- IC50 [1]: 946 nM
- IC50 [2]: 765 nM
- IC50 [3]: 826 nM
- IC50 [4]: 862 nM
- IC50 [5]: < 31.6 nM
- IC50 [6]: < 31.6 nM
- viability, T/C [7]: 93.2%
- viability, T/C [8]: 88.2%
- viability, T/C [9]: 74.5%
- viability, T/C [10]: 46.9%
- viability, T/C [11]: 33.3%
- viability, T/C [12]: 22.6%
- viability, T/C [13]: 97.9%
- viability, T/C [14]: 98.4%
- viability, T/C [15]: 77.7%
- viability, T/C [16]: 40.8%
- viability, T/C [17]: 33.3%
- viability, T/C [18]: 24.2%
- viability, T/C [19]: 98.7%
- viability, T/C [20]: 92.2%
- viability, T/C [21]: 72.8%
- viability, T/C [22]: 43.8%
- viability, T/C [23]: 33.3%
- viability, T/C [24]: 23.1%
- viability, T/C [25]: 80.1%
- viability, T/C [26]: 87.6%
- viability, T/C [27]: 66.3%
- viability, T/C [28]: 45.2%
- viability, T/C [29]: 37.7%
- viability, T/C [30]: 23.4%
- viability, T/C [31]: 28.9%
- viability, T/C [32]: 18.7%
- viability, T/C [33]: 22.6%
- viability, T/C [34]: 18.7%
- viability, T/C [35]: 17.7%
- viability, T/C [36]: 11.5%
- viability, T/C [37]: 40%
- viability, T/C [38]: 50.6%
- viability, T/C [39]: 35%
- viability, T/C [40]: 33.5%
- viability, T/C [41]: 26.5%
- viability, T/C [42]: 15.8%

Structure (SMILES): Cc1[nH]c2ccccc2c1CCNCc1ccc(/C=C/C(=O)NO)cc1
- viability, T/C (compound 0.000999 µM): 93.1% and 97% and 99.3%
- viability, T/C (compound 0.00316 µM): 90.7% and 88% and 95.2%
- viability, T/C (compound 0.00999 µM): 91.3% and 87.6% and 84.2%
- viability, T/C (compound 0.0316 µM): 83.3% and 83.6% and 75.6%
- viability, T/C (compound 0.0999 µM): 21.4% and 22.6% and 29%
- viability, T/C (compound 0.316 µM): 0.4% and 0.47% and 1.04%
- IC50 (curve of compound): 58.7 nM and 59.5 nM and 58.2 nM

Structure (SMILES): CC1COCCN1c1cc(C2(O)CC3CCC(C2)O3)c2cnn(-c3ccn[nH]3)c2n1 (configuration not stated)
- viability, T/C (compound 0.0316 µM): 52.1% and 55.1% and 56%
- viability, T/C (compound 0.1 µM): 21.3% and 20.7% and 15.9%
- viability, T/C (compound 0.316 µM): 9.11% and 9.51% and 6.18%
- viability, T/C (compound 1 µM): 6.21% and 5.84% and 2.3%
- viability, T/C (compound 3.16 µM): 4.07% and 4.22% and 1.52%
- viability, T/C (compound 10 µM): 3.07% and 3.7% and 0.82%
- IC50 (curve of compound): 33.8 nM and 37.4 nM and 37.3 nM

Structure (SMILES): Cc1cccc(N(C)C(=O)C2C(O)CCN2c2nc(C)cc(C(F)(F)F)c2C#N)c1 (configuration not stated) + CN(C)c1ccc(Nc2c3ccc(NC(=O)CCN4CCCC4)cc3nc3cc(NC(=O)CCN4CCCC4)ccc23)cc1
- IC50 [1]: > 10000 nM
- IC50 [2]: > 10000 nM
- IC50 [3]: 7840 nM
- IC50 [4]: < 31.6 nM
- IC50 [5]: < 31.6 nM
- IC50 [6]: < 31.6 nM
- viability, T/C [7]: 87.6%
- viability, T/C [8]: 91.2%
- viability, T/C [9]: 103%
- viability, T/C [10]: 101%
- viability, T/C [11]: 87.6%
- viability, T/C [12]: 79.2%
- viability, T/C [13]: 99.2%
- viability, T/C [14]: 102%
- viability, T/C [15]: 96.4%
- viability, T/C [16]: 105%
- viability, T/C [17]: 85.6%
- viability, T/C [18]: 75.2%
- viability, T/C [19]: 88.3%
- viability, T/C [20]: 93.5%
- viability, T/C [21]: 85.2%
- viability, T/C [22]: 75.1%
- viability, T/C [23]: 75.7%
- viability, T/C [24]: 43.3%
- viability, T/C [25]: 26.3%
- viability, T/C [26]: 23.1%
- viability, T/C [27]: 31.7%
- viability, T/C [28]: 23.1%
- viability, T/C [29]: 19.1%
- viability, T/C [30]: 9.15%
- viability, T/C [31]: 1.62%
- viability, T/C [32]: 1.75%
- viability, T/C [33]: 1.5%
- viability, T/C [34]: 1.54%
- viability, T/C [35]: 1.07%
- viability, T/C [36]: 1.26%
- viability, T/C [37]: 0.45%
- viability, T/C [38]: 0.54%
- viability, T/C [39]: 0.26%
- viability, T/C [40]: 0.48%
- viability, T/C [41]: 0.65%
- viability, T/C [42]: 0.44%

Second part, led by results:

- IC50 (curve of compound): 3590 nM and 2350 nM and 3270 nM
Structure (SMILES): CC(C)n1c(=O)n(C)c2cnc3cc(F)c(-c4ccc(OCCCN5CCCCC5)nc4)cc3c21
- viability, T/C (compound 0.0316 µM): 93.2% and 98.1% and 85.8%
- viability, T/C (compound 0.1 µM): 95.7% and 88.2% and 81.6%
- viability, T/C (compound 0.316 µM): 96.2% and 94.4% and 102%
- viability, T/C (compound 1 µM): 74.8% and 82.3% and 78.2%
- viability, T/C (compound 3.16 µM): 55.2% and 38.8% and 51.6%
- viability, T/C (compound 10 µM): 20.5% and 11.7% and 18.7%

- IC50 (curve of compound): > 10000 nM
Structure (SMILES): Cc1cccc(N(C)C(=O)C2C(O)CCN2c2nc(C)cc(C(F)(F)F)c2C#N)c1 (configuration not stated)
- viability, T/C (compound 0.0316 µM): 90.3% and 105% and 91.7%
- viability, T/C (compound 0.1 µM): 101% and 88.7% and 99.2%
- viability, T/C (compound 0.316 µM): 87.6% and 91.7% and 98.8%
- viability, T/C (compound 1 µM): 104% and 95.4% and 100%
- viability, T/C (compound 3.16 µM): 98.1% and 85.9% and 89.5%
- viability, T/C (compound 10 µM): 84.6% and 77.5% and 71.8%

Source: PubChem BioAssay AID2060498 (Molecular Pharmacology Branch, DTP, NCI, 2025)
